Experimental data reported in US7820817B2, “Modulators of muscarinic receptors” (Vertex Pharmaceuticals Incorporated, priority 2004, dated 2010).

System: at least one muscarinic receptor, M1, M2, M3, M4
Assay: Muscarinic modulation activity (Table 3)
Format: cell-based
Design: key: +++: exhibited muscarinic modulation activity for at least one muscarinic receptor, M1, M2, M3, M4, at a concentration of less than 5 μM; ++: exhibited muscarinic modulation activity for at least one muscarinic receptor, M1, M2, M3, M4, at a concentration of between 30 μM and 5 μM; +: exhibited muscarinic modulation activity for at least one muscarinic receptor, M1, M2, M3, M4, at a concentration of greater than 30 μM; −: were not assayed or did not exhibit muscarinic modulation activity for at least one muscarinic receptor, M1, M2, M3, M4, at the concentration at which the assay was performed
Details: concentration at which modulation of at least one muscarinic receptor, M1, M2, M3, M4, was exhibited; CHO cells
Method: CHO cells expressing muscarinic receptors (M1 to M5) are grown as monolayers in tissue culture flasks at 37° C. in a humidified atmosphere containing 5% CO2 and passaged every 3-5 days. The growth media is Dulbecco's modified eagles medium (DMEM, Gibco Cat#12430-054), containing 25 mM Hepes and supplemented with Fetal Bovine Serum (Hyclone, cat#SH30071.03), 0.1 mM of MEM non-essential amino acids (GIBCO, Cat#11140-050), 1 mM MEM Sodium Pyruvate (GIBCO Cat#11360-070) and 100 units/ml of Penicillin G and 100 μg/ml of Streptomycin (GIBCO Cat#15140-122). The recombinant muscarinic receptor cell lines are grown under antibiotic pressure with media containing 25 μg/ml zeocin and 500 μg/ml G418 (M1-CHO), 4 μg/ml puromycin, 50 μg/ml zeocin and 2.5 μg/ml blasticidin (M2 and M4-CHO) or 50 μg/ml zeocin and 4 μg/ml puromycin (M3 and M5-CHO).
Cells are harvested at 80-90% confluence using Versene (GIBCO Cat#15040-066), collected by centrifugation and seeded 18-24 hrs prior to running the calcium assay at a density of 5,000-10,000 cells/well in […], clear-bottomed 384-well plates (BD Biocoat, poly-D-lysine, Cat#356663). The day of the experiment, the cells are washed with a plate washer (Bioteck Instruments, ELX 405) using bath1 buffer (140-mM NaCl, 4.5-mM KCl, 2-mM CaCl2, 1-mM MgCl2, 10-mM Hepes-Na, 10-mM Glucose, pH 7.4, with NaOH) containing 1 mM Probenecid. Next, the calcium dye Fluo-3 (25 μl/well of Fluo-3 AM at 4 μM, Molecular Probes F-1241, in Bath 1 buffer containing 1 mM Probenecid) is added to the 25 μl of Bath 1 remaining in each well after the plate wash and the dye is loaded at 37° C. in the tissue culture incubator for 60-90 min. The fluorescent dye is removed using the plate washer with Bath 1 containing 1 mM Probenecid, leaving 25 μl/well of this solution after the wash. Alternatively, cells can be loaded with the calcium indicator from Molecular Devices (Calcium 3 Assay Reagents, Cat #R7181) adding 5 μl of a 5× solution dye in Bath 1 containing 1 mM Probenecid (10 ml per dye flask cat#R7182 to generate a solution […]) to 20 μl of the same buffer. After loading for 60 min. the experiment can be run without having to remove the dye.
Compounds are prepared at a 2× fold concentration in a 96-well plate (round bottom, Costar Corning cat#3656), by reconstituting the pre-spotted compounds in bath 1 containing 1 mM probenecid. The final concentration DMSO is 0.5%, and the amount of DMSO is normalized across the assay plate. To determine an agonist action of the compounds on muscarinic receptors, the reconstituted compounds are added (25 μl compound/well) to the cell assay plate (containing 25 μl/well) using the multi-channel robotic system of the FLIPR 3 Instrument (Molecular Devices, Sunnyvale, Calif.). To determine a functional inhibitory action of the compounds on muscarinic receptors, the reconstituted compounds are added (25 μl compound/well) to the assay plate and pre-incubated for 15 min prior to adding 25 μl of Carbachol at 3× the EC80 for each muscarinic subtype. Alternatively, the compounds can be co-applied simultaneously with the agonist. In both assay modes, the fluorescence is recorded for 60 sec (excitation wavelength is […] and emission wavelength 540 nm) using the FLIPR 3 instrument.
The potency, efficacy and selectivity of the muscarinic compounds were evaluated by screening the compound activity across the whole family (M1 to M5 cells).
CHO cells expressing muscarinic receptors (M1 to M5) and containing a gene reporter system β-Lactamase) with transcriptional control mediated by calcium release (NFAT activation). See Zlokarnik, G; Negulescu, P. A.; Knapp, T. E.; Mere, L; Burres, N; Feng, L; Whitney, M; Roemer, K; Tsien, R. Y. Quantitation of transcription and clonal selection of single living cells with β-lactamase as reporter. Science, 1998 Jan. 2, 279(5347):84-8. The cells are grown as monolayers in tissue culture flasks at 37° C. in a humidified atmosphere containing 5% CO2 and passaged every 3-5 days. […]

| SMILES | ACTIVITY (muscarinic modulation activity) |
| --- | --- |
| CCOC(=O)N1C2CCC1CC(N1CCC(n3nnc4ccccc43)CC1)C2 (stereo not drawn) [Compound 29, 3-[4-(1H-benzotriazol-1-yl)-1-piperidyl]-8-azabicyclo[3.2.1]octane-8-carboxylic acid ethyl ester] | +++ (exhibited muscarinic modulation activity for at least one muscarinic receptor, M1, M2, M3, M4, at a concentration of less than 5 μM) |
| CCOC(=O)N1C2CCC1CC(CN1CCN(c3ncccc3C#N)CC1)C2 (stereo not drawn) [Compound 68, 3-[[4-(3-cyano-2-pyridyl)piperazin-1-yl]methyl]-8-azabicyclo[3.2.1]octane-8-carboxylic acid ethyl ester] | +++ (exhibited muscarinic modulation activity for at least one muscarinic receptor, M1, M2, M3, M4, at a concentration of less than 5 μM) |
| N#Cc1cccnc1N1CCN(C2CC3CCC2C3)CC1 (stereo not drawn) [Compound 32, 2-(4-norbornan-2-ylpiperazin-1-yl)nicotinonitrile] | + (exhibited muscarinic modulation activity for at least one muscarinic receptor, M1, M2, M3, M4, at a concentration of greater than 30 μM) |
| C1=CC2CC1CC2CN1CCN(c2ccncc2)CC1 (stereo not drawn) [Compound 41, 1-(5-bicyclo[2.2.1]hept-2-enylmethyl)-4-(4-pyridyl)piperazine] | +++ (exhibited muscarinic modulation activity for at least one muscarinic receptor, M1, M2, M3, M4, at a concentration of less than 5 μM) |
| N#Cc1cccnc1N1CCN(C2CC3CCC(C3)C2)CC1 (stereo not drawn) [Compound 27, 2-[4-(3-bicyclo[3.2.1]octyl)piperazin-1-yl]nicotinonitrile] | + (exhibited muscarinic modulation activity for at least one muscarinic receptor, M1, M2, M3, M4, at a concentration of greater than 30 μM) |
| N#Cc1cc(-c2ccccc2)cnc1N1CCN(CC2CC3CCC2C3)CC1 (stereo not drawn) [Compound 46, 2-[4-(norbornan-2-ylmethyl)piperazin-1-yl]-5-phenyl-nicotinonitrile] | ++ (exhibited muscarinic modulation activity for at least one muscarinic receptor, M1, M2, M3, M4, at a concentration of between 30 μM and 5 μM) |
| N#Cc1cccnc1N1CCN(CC2CC3C=CC2C3)CC1 (stereo not drawn) [Compound 42, 2-[4-(5-bicyclo[2.2.1]hept-2-enylmethyl)piperazin-1-yl]nicotinonitrile] | +++ (exhibited muscarinic modulation activity for at least one muscarinic receptor, M1, M2, M3, M4, at a concentration of less than 5 μM) |
| Cc1cnc(C)c(N2CCN(CC3CC4C=CC3C4)CC2)n1 (stereo not drawn) [Compound 16, 3-[4-(5-bicyclo[2.2.1]hept-2-enylmethyl)piperazin-1-yl]-2,5-dimethyl-pyrazine] | +++ (exhibited muscarinic modulation activity for at least one muscarinic receptor, M1, M2, M3, M4, at a concentration of less than 5 μM) |
| N#Cc1ccc(N2CCN(C3CC4CCC3C4)CC2)nc1 (stereo not drawn) [Compound 19, 6-(4-norbornan-2-ylpiperazin-1-yl)nicotinonitrile] | ++ (exhibited muscarinic modulation activity for at least one muscarinic receptor, M1, M2, M3, M4, at a concentration of between 30 μM and 5 μM) |
| CCOC(=O)N1C2CCC1CC(N1CCC(c3nc(OC)cc(OC)n3)CC1)C2 (stereo not drawn) [Compound 57, 3-[4-(4,6-dimethoxypyrimidin-2-yl)-1-piperidyl]-8-azabicyclo[3.2.1]octane-8-carboxylic acid ethyl ester] | +++ (exhibited muscarinic modulation activity for at least one muscarinic receptor, M1, M2, M3, M4, at a concentration of less than 5 μM) |
| N#Cc1ccc(C(F)(F)F)nc1N1CCN(C2CC3CCC2C3)CC1 (stereo not drawn) [Compound 3, 2-(4-norbornan-2-ylpiperazin-1-yl)-6-(trifluoromethyl)nicotinonitrile] | + (exhibited muscarinic modulation activity for at least one muscarinic receptor, M1, M2, M3, M4, at a concentration of greater than 30 μM) |
| NC(=O)c1cccnc1N1CCN(C2CC3CCC2C3)CC1 (stereo not drawn) [Compound 10, 2-(4-norbornan-2-ylpiperazin-1-yl)nicotinamide] | − |
| Cc1nccnc1N1CCN(C2CC3CCC2C3)CC1 (stereo not drawn) [Compound 63, 2-methyl-3-(4-norbornan-2-ylpiperazin-1-yl)-pyrazine] | + (exhibited muscarinic modulation activity for at least one muscarinic receptor, M1, M2, M3, M4, at a concentration of greater than 30 μM) |
| Cc1cc(C)nc(N2CCN(C3CC4CCC3C4)CC2)n1 (stereo not drawn) [Compound 72, 4,6-dimethyl-2-(4-norbornan-2-ylpiperazin-1-yl)-pyrimidine] | − |
| CCOC(=O)N1C2CCC1CC(N1CCN(c3ncccc3F)CC1)C2 (stereo not drawn) [Compound 30, 3-[4-(3-fluoro-2-pyridyl)piperazin-1-yl]-8-azabicyclo[3.2.1]octane-8-carboxylic acid ethyl ester] | +++ (exhibited muscarinic modulation activity for at least one muscarinic receptor, M1, M2, M3, M4, at a concentration of less than 5 μM) |
| N#Cc1ccc(C(F)(F)F)nc1N1CCN(CC2CC3CCC2C3)CC1 (stereo not drawn) [Compound 8, 2-[4-(norbornan-2-ylmethyl)piperazin-1-yl]-6-(trifluoromethyl)nicotinonitrile] | − |
| Clc1cccnc1N1CCN(C2CC3CCC2C3)CC1 (stereo not drawn) [Compound 7, 1-(3-chloro-2-pyridyl)-4-norbornan-2-yl-piperazine] | +++ (exhibited muscarinic modulation activity for at least one muscarinic receptor, M1, M2, M3, M4, at a concentration of less than 5 μM) |
| CCOC(=O)N1C2CCC1CC(N1CCN(c3ncccc3C#N)CC1)C2 (stereo not drawn) [Compound 12, 3-[4-(3-cyano-2-pyridyl)piperazin-1-yl]-8-azabicyclo[3.2.1]octane-8-carboxylic acid ethyl ester] | +++ (exhibited muscarinic modulation activity for at least one muscarinic receptor, M1, M2, M3, M4, at a concentration of less than 5 μM) |
| Clc1cccc(N2CCN(CC3CC4C=CC3C4)CC2)n1 (stereo not drawn) [Compound 21, 1-(5-bicyclo[2.2.1]hept-2-enylmethyl)-4-(6-chloro-2-pyridyl)-piperazine] | − |
| CCOC(=O)N1C2CCC1CC(N1CCN(c3ccc(C#N)cn3)CC1)C2 (stereo not drawn) [Compound 66, 3-[4-(5-cyano-2-pyridyl)piperazin-1-yl]-8-azabicyclo[3.2.1]octane-8-carboxylic acid ethyl ester] | +++ (exhibited muscarinic modulation activity for at least one muscarinic receptor, M1, M2, M3, M4, at a concentration of less than 5 μM) |
| COc1cc(OC)nc(C2CCN(CC3CC4C=CC3C4)CC2)n1 (stereo not drawn) [Compound 4, 2-[1-(5-bicyclo[2.2.1]hept-2-enylmethyl)-4-piperidyl]-4,6-dimethoxy-pyrimidine] | +++ (exhibited muscarinic modulation activity for at least one muscarinic receptor, M1, M2, M3, M4, at a concentration of less than 5 μM) |
